# Experimental data from patent EP3064205A1, “Therapeutic use of isomeric forms of 2-(4-chlorophenyl)quinolin-4-yl)(piperidin-2-yl)methanol” (Glionova AB, priority 2015, dated 2016).
# Read-outs that look alike come from different tables or passages of the source.
# Legend:
# [1] = tested on: Panc-1 cells; test: APH cell viability assay, 2D culture; type: cell-based, human; details: Panc-1, 2D culture, 30 µM
# Excerpt: The following well-characterized human pancreatic ductal adenocarcinoma cell lines (ATCC) were used: HPAF II, BxPC-3, MIA-PaCa2 and Panc-1. These cell lines were generated from patient-derived tumors and are widely used model system to study pancreatic cancer (HPAF II: Kim YW, et al. Pancreas 4: 353-362, 1989; BxPC-3: Tan MH, et al. Cancer Invest. 4: 15-23, 1986; MIA-PaCa2: Yunis AA, et al. Int. J. Cancer 19: 128-135, 1977; Pacn-1: Lieber M, et al. Int. J. Cancer 15: 741-747, 1975).
# For 2D culture, cells were seeded on flat bottom 96 well plates (Costar) at a concentration of 2500 cells/well in 100 µl phenol red-free RPMI-F12 medium containing 10% FCS. For 3D culture, cells were seeded according to the description for spheroid preparation in phenol-free medium. On day 4 Vacquinol-1 RS (S1) was added at the indicated final concentrations in an extra volume of 10 µl/well and in 8 replicates for each time point. On day 7, an APH assay (See below) was performed. The viability rate was calculated as a percentage of the untreated cells. All data were expressed as the mean ± SD of at least 8 replicates. To confirm the reliability of the APH assay on 2D culture, cell viability was measured using CellTiter-Glo assay (Promega).
# The APH assay, which measures the activity of acidic phosphatase in the cells, was optimized for 3D cultures as follows. Only 70µl of medium was removed in order not to suck up the spheres. Then 60µl of PBS was added per well and 100µl of APH buffer (0.1 M sodium acetate pH 5.2 and 0.1 % triton X-100) containing the substrate (2mg/ml p-nitrophenyl phosphate, final pH 4.8 from Thermo Scientific). After 2 hours incubation for the 2D culture and 5 hours for the 3D culture, 10µl of 1 M NaOH was added to stop the APH activity. Absorbance at 405nm was measured within 10 minutes using a FluoStar OPTIMA plate reader (BMG Labtech). Viability rate was calculated as per cent of CTR untreated cells. All data are expressed as the mean ± SD of at least 8 replicates.
# [2] = tested on: MAXF 574; test: 3D clonogenic assay (PDX); type: cell-based; details: Homo sapiens, MAXF 574, Breast
# Protocol: (§1) The anti-tumor efficacy of S1 in the patient-derived tumor xenograft (PDX) tumor panel was assessed, where the efficacy of S1 in PDX tumor panel in the 96-well format, in 10 concentrations in duplicate was performed. Colony formation of tumor cell suspensions in a soft-agar matrix was observed and quantified. The output is IC50 values and dose response-relationships based on number of colonies in control and treatment wells, as identified by an automated image analysis algorithm. Stock solution of S1 was prepared in 100% DMSO at 10 mM concentration (stored at -20°C) and reused for each experiment. Compound final test concentrations: Dilution series ½ i.e.: 50µM, 15, 5, 1.5, 0.5, 0.15, 0.05, 0.015, 0.005 and 0.0015.
# (§2) Tumor xenografts (also referred to as patient-derived tumor xenografts) were passaged as subcutaneous xenografts in NMRI nu/nu mice. Tumor xenograft were removed from mice under sterile conditions, mechanically disaggregated and subsequently incubated with an enzyme cocktail consisting of collagenase type IV (41 U/mL), DNase I (125 U/mL), hyaluronidase type III (100 U/mL) and dispase II (1.0 U/mL) in RPMI 1640 medium at 37°C for 60 - 120 minutes. Cells were passed through sieves of 100 µm and 40 µm mesh size and washed with RPMI 1640 medium. The percentage of viable cells was determined in a Neubauer-hemocytometer using trypan blue exclusion. Aliquots of the cells were frozen down, and stored in liquid nitrogen.
# (§3) The clonogenic assay test was carried out in 96 well plate format. For each test a frozen aliquot of tumor cells prepared from tumor xenografts was thawed and assay plates were prepared as follows: each test well contained 3 layers of equal volume, 2 layers of semi-solid medium (bottom and top layer), and one layer of medium supernatant, with or without test compound. The bottom layer consisted of 0.05 mL/well Iscove's Modified Dulbecco's Medium (Invitrogen), supplemented with 20% (v/v) fetal calf serum (Sigma), 0.01% (w/v) gentamicin (Invitrogen) and 0.75% (w/v) agar (BD Biosciences). Tumor cells were added to 0.05 mL of the same culture medium supplemented with 0.4% (w/v) agar and plated onto the bottom layer. After 24 h, test compounds were added after serial dilution in DMSO and transfer in cell culture medium, and left on the cells for the duration of the experiment (continuous exposure, 0.05 mL drug overlay). Every dish included six untreated control wells and drug-treated groups in duplicate at 10 concentrations. Cultures were incubated at 37 °C and 7.5% CO2 in a humidified atmosphere for 8 to 13 days and monitored closely for colony growth using an inverted microscope. Within this period, ex vivo tumor growth lead to the formation of colonies with a diameter of >50 µm. […]
# [3] = tested on: RXF 1183; test: 3D clonogenic assay (PDX); type: cell-based; details: Homo sapiens, RXF 1183, Renal
# Protocol: as §1, §2, §3
# [4] = tested on: patient-derived tumor xenograft (PDX) tumor panel; test: 3D clonogenic assay, whole panel; type: cell-based, human; details: for IC50: Homo sapiens
# Protocol: as §1, §2
# The clonogenic assay test was carried out in 96 well plate format. For each test a frozen aliquot of tumor cells prepared from tumor xenografts was thawed and assay plates were prepared as follows: each test well contained 3 layers of equal volume, 2 layers of semi-solid medium (bottom and top layer), and one layer of medium supernatant, with or without test compound. The bottom layer consisted of 0.05 mL/well Iscove's Modified Dulbecco's Medium (Invitrogen), supplemented with 20% (v/v) fetal calf serum (Sigma), 0.01% (w/v) gentamicin (Invitrogen) and 0.75% (w/v) agar (BD Biosciences). Tumor cells were added to 0.05 mL of the same culture medium supplemented with 0.4% (w/v) agar and plated onto the bottom layer. After 24 h, test compounds were added after serial dilution in DMSO and transfer in cell culture medium, and left on the cells for the duration of the experiment (continuous exposure, 0.05 mL drug overlay). Every dish included six untreated control wells and drug-treated groups in duplicate at 10 concentrations. Cultures were incubated at 37 °C and 7.5% CO2 in a humidified atmosphere for 8 to 13 days and monitored closely for colony growth using an inverted microscope. Within this period, ex vivo tumor growth lead to the formation of colonies with a diameter of >50 µm. At the time of maximum colony formation, counts were performed with an automatic image analysis system. 24 h prior to evaluation, vital colonies were stained with a sterile aqueous solution of 2-(4-iodophenyl)-3-(4-nitrophenyl)-5-phenyltetrazolium chloride (1 mg/mL, 100 µL/well). Sigmoidal concentration-response curves were fitted to the data points obtained for each tumor model using 4 parameter non-linear curve fit (Oncotest Warehouse Software). IC50 values are reported as relative IC50 values, being the concentration of test compound that give a response (inhibition of colony formation/viability) half way between the top and bottom plateau of the sigmoidal concentration-response curve (inflection point of the curve), or as absolute IC50 values, being the concentration of test compound at the intersection of the concentration-response curves with T/C = 50%. For calculation of mean IC50 values the geometric mean was used. Results are presented as mean graph plots or heat maps (individual IC50 values relative to the geometric mean IC50 value) over all cell lines as tested.
smiles,measurement,setting,value
"O[C@H](c1cc(-c2ccc(Cl)cc2)nc2ccccc12)[C@@H]1CCCCN1 [S1, (R)-(2-(4-chlorophenyl)quinolin-4-yl)((S)-piperidin-2-yl)methanol]",decrease in cell viability,[1]; 24h,43%
same,decrease in cell viability,[1]; 48h,63%
same,decrease in cell viability,[1]; 72h,70%
same,IC50,[2]; read-out: abs. IC50,50 µM
same,IC50,[2]; read-out: rel. IC50,50 µM
same,IC50,[3]; read-out: abs. IC50,50 µM
same,IC50,[3]; read-out: rel. IC50,50 µM
same,IC50,"[4]; colony formation, mean over tumors, read-out: absolute mean IC50 value",8.89 µM
same,IC50,"[4]; colony formation, mean over tumors, read-out: relative mean IC50 value",8.1 µM
same,IC50,"[4]; geometric mean over Table 2, read-out: Mean IC50 (qeometr.) abs. IC50",9.47 µM
same,IC50,"[4]; geometric mean over Table 2, read-out: Mean IC50 (qeometr.) rel. IC50",8.7 µM
same,IC50,"[4]; most tumors tested, read-out: IC50",2 to 15 µM
same,IC50,"[4]; three tumors: BXF1352, CXF647, LXFA289, read-out: IC50",> 15 µM
same,bottom plateaus of the concentration-effect curves,[4]; range over tested xenografts,0% to 47%
same,IC50 lower than the mean of all tumors,"[4]; sensitive tumors BXF 1258 and LXFA 526, on average",3 fold
